Assay type in all cases: in vitro ADME
A short description of data set [1]: Stability on incubation in blood (LC-MS/MS). As to conditions: for concentration of PF-07086920 following incubation of PF-07038124 / concentration of PF-07038124 following incubation: 1 hour at 1 μM; for chemical stability in blood: oxidation of the oxaborole ring to diol. As for the experimental part: One of the major metabolic pathways in humans was formation of the oxaborole ring opened molecule, PF-07086920. […] Following incubation for 1 hour at 1 μM in human and rat blood, the concentration of PF-07038124 declined whereas the concentration of PF-07086920 increased in both human and rat blood as determined by liquid chromatography-tandem mass spectrometry. In addition to being a metabolite, PF-07086920 was also determined to be a degradant in the formulations comprising PF-07038124.

In the next data set the test system is monkey hepatocytes. The data set can be described thus: In vitro metabolism in hepatocytes. As to conditions: non-radiolabeled. From the text:
(§1) An assessment of the metabolism of non-radiolabeled PF-07038124 was 5 conducted in vitro using mouse, rat, dog, monkey and human hepatocytes. […] The primary routes of metabolism were hydrolysis/oxidation of the oxaborole ring to yield the diol (PF-07086920), glucuronidation of the pyridyl nitrogen, hydroxylation on the propyl group of the phenoxypropyl moiety, and demethylation of the methoxy group (shown below). All metabolites detected in mouse, rat, dog, and monkey hepatocytes were also observed in human hepatocytes.

In a further data set the test system is rat hepatocytes. The data set can be described thus: In vitro metabolism in hepatocytes. As to conditions: non-radiolabeled.
From the text: as §1

Another data set has as its system dog hepatocytes. As to the kind of experiment: In vitro metabolism in hepatocytes. As to conditions: non-radiolabeled.
From the text: as §1

Another data set concerns mouse hepatocytes. As to the kind of experiment: In vitro metabolism in hepatocytes. As to conditions: non-radiolabeled.
From the text: as §1

Another data set has as its system human hepatocytes. The data set can be described thus: In vitro metabolism in hepatocytes. As to conditions: non-radiolabeled.
From the text: as §1

On to `CCCOc1cc(-c2cncc(C(CO)CO)c2)ccc1OC` [PF-07086920, 2-(5-(4-methoxy-3-propoxyphenyl)pyridin-3-yl)propane-1,3-diol], for which the “concentration of PF-07086920 following incubation of PF-07038124” value in data set [1] (human blood) and in data set [1] (rat blood) was “increased” throughout.
Take `CCCOc1cc(-c2cncc([C@@H]3COB(O)C3)c2)ccc1OC` [PF-07038124, (R)-4-(5-(4-methoxy-3-propoxyphenyl)pyridin-3-yl)-1,2-oxaborolan-2-ol]: the “metabolism of PF-07038124 in hepatocytes” value in the data set with monkey hepatocytes, with rat hepatocytes, with dog hepatocytes, with mouse hepatocytes and with human hepatocytes was “Moderate to extensive metabolism” each time. The “concentration of PF-07038124 following incubation” value in data set [1] (human blood) and in data set [1] (rat blood) was “declined” each time. For the same compound, the “chemical stability in blood” value in data set [1] (human blood) and in data set [1] (rat blood) was “chemically unstable” in each case.

The values are drawn from patent publication US20230310472A1, “Stable Topical Formulations of 1(R)-4-(5-(4-Methoxy-3-Propoxphenyl)Pyridin-3-YL)-1,2-OX-Aborolan-2-OL” (Pfizer Inc., priority 2020, published 2023).
